From ChEMBL document CHEMBL3351921, “Structure-activity relationships (SAR) and structure-kinetic relationships (SKR) of pyrrolopiperidinone acetic acids as CRTh2 antagonists” (Bioorg Med Chem Lett, 2014)
Values after ≈ are worked out from the molar mass of the structure shown. Active and inactive are the calls of the source. The rule behind the calls is not given here.

Experiments:
[1] = molecular target: T1, Prostaglandin D2 receptor 2 (Homo sapiens, UniProt Q9Y5Y4); assay: Antagonist activity at CRTh2 (unknown origin) stably expressed in PGD2-stimulated CHO.K1 cells preincubated for 1 hr by radio-labelled [35S]-GTPgammaS binding assay; assay type: functional, cell-based
T1 sequence (Q9Y5Y4 whole entry): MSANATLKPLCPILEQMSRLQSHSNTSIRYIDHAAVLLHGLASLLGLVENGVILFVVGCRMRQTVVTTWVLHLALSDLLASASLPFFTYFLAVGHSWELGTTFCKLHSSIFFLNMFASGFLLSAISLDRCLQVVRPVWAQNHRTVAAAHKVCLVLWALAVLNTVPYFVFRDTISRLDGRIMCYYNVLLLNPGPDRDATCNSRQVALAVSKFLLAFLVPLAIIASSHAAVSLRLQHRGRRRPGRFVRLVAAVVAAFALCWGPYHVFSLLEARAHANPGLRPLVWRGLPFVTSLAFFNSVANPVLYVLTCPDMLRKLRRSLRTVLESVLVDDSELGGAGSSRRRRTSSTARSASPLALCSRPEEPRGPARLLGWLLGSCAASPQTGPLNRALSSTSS

[2] = molecular target: T2, Prostaglandin D2 receptor (Homo sapiens) (UniProt Q13258); assay: Inhibition of at prostanoid DP1 receptor (unknown origin) at 10 uM
T2 sequence (whole entry): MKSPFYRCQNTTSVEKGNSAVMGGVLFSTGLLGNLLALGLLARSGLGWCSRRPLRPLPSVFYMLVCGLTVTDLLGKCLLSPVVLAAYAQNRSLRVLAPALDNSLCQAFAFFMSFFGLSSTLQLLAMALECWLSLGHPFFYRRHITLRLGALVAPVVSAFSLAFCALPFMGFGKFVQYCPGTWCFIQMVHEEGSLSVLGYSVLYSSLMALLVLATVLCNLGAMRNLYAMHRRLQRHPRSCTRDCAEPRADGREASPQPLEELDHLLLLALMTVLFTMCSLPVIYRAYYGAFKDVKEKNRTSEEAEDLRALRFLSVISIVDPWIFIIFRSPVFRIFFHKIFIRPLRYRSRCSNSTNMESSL

[3] = molecular target: T3, Thromboxane A2 receptor (Homo sapiens) (UniProt P21731); assay: Inhibition of at prostanoid TP receptor (unknown origin) at 10 uM
T3 sequence (whole entry): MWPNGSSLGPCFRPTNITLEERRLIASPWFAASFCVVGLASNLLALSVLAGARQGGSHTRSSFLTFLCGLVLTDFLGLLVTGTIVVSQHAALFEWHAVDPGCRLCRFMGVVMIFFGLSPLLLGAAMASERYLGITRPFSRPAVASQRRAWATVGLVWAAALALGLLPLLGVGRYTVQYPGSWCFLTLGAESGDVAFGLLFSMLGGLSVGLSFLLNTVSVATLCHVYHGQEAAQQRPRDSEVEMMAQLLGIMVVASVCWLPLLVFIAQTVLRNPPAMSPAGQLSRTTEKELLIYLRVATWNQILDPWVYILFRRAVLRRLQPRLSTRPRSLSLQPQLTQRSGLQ

[4] = Dissociation constant, pKa of the compound by potentiometric method; assay type: physicochemical
[5] = Cmax in rat at 1 mg/kg, iv; assay type: ADME, organism-based; set-up: dose 1 mg/kg, route intravenous; details: in vivo
[6] = Clearance in rat at 1 mg/kg, iv; assay type: ADME, organism-based; set-up: dose 1 mg/kg, route intravenous; details: in vivo
[7] = AUC (0 to infinity) in rat at 1 mg/kg, iv; assay type: ADME, organism-based; set-up: time infinity, dose 1 mg/kg, route intravenous; details: plasma
[8] = Volume of distribution at steady state in rat at 1 mg/kg, iv; assay type: ADME, organism-based; set-up: dose 1 mg/kg, route intravenous; details: in vivo, read-out: Vdss
[9] = Terminal half life in rat at 1 mg/kg, iv; assay type: ADME, organism-based; set-up: dose 1 mg/kg, route intravenous; details: in vivo, read-out: beta t1/2 (converted)
[10] = Cmax in rat at 10 mg/kg, po; assay type: ADME, organism-based; set-up: dose 10 mg/kg, route oral; details: in vivo
[11] = AUC (0 to infinity) in rat at 10 mg/kg, po; assay type: ADME, organism-based; set-up: time infinity, dose 10 mg/kg, route oral; details: plasma
[12] = Terminal half life in rat at 10 mg/kg, po; assay type: ADME, organism-based; set-up: dose 10 mg/kg, route oral; details: in vivo, read-out: beta t1/2 (converted)
[13] = Oral bioavailability in rat at 10 mg/kg; assay type: ADME, organism-based; details: in vivo
[14] = molecular target: T1, Prostaglandin D2 receptor 2; assay: Antagonist activity at CRTh2 (unknown origin) stably expressed in CHO.K1 cells co-mixing the compound and PGD2 by radio-labelled [35S]-GTPgammaS binding assay; assay type: functional, cell-based
[15] = molecular target: T1, Prostaglandin D2 receptor 2; assay: Antagonist activity at CRTh2 (unknown origin) stably expressed in PGD2-stimulated CHO.K1 cells preincubated for 15 mins by radio-labelled [35S]-GTPgammaS binding assay; assay type: functional, cell-based
[16] = molecular target: T1, Prostaglandin D2 receptor 2; assay: Antagonist activity at CRTh2 (unknown origin) stably expressed in PGD2-stimulated CHO.K1 cells preincubated for 30 mins by radio-labelled [35S]-GTPgammaS binding assay; assay type: functional, cell-based
[17] = molecular target: T1, Prostaglandin D2 receptor 2; assay: Antagonist activity at CRTh2 (unknown origin) stably expressed in PGD2-stimulated CHO.K1 cells preincubated for 60 mins by radio-labelled [35S]-GTPgammaS binding assay; assay type: functional, cell-based
[18] = molecular target: T1, Prostaglandin D2 receptor 2; assay: Antagonist activity at CRTh2 (unknown origin) stably expressed in PGD2-stimulated CHO.K1 cells preincubated for 120 mins by radio-labelled [35S]-GTPgammaS binding assay; assay type: functional, cell-based
[19] = molecular target: T1, Prostaglandin D2 receptor 2; assay: Antagonist activity at CRTh2 (unknown origin) stably expressed in PGD2-stimulated CHO.K1 cells preincubated for 180 mins by radio-labelled [35S]-GTPgammaS binding assay; assay type: functional, cell-based
[20] = molecular target: T4, Prostaglandin D2 receptor 2 (Homo sapiens) (UniProt Q9Y5Y4); details: CHO.K1
T4 sequence (whole entry): T1 sequence (Q9Y5Y4 whole entry)
Description: Antagonist activity at CRTh2 (unknown origin) stably expressed in PGD2-stimulated CHO.K1 cells assessed as dissociation half-life at 5 to 10 times IC50 after 2 hrs by radio-labelled [35S]-GTPgammaS binding assay

[21] = molecular target: T1, Prostaglandin D2 receptor 2; assay: Antagonist activity at CRTh2 (unknown origin) stably expressed in CHO.K1 cells preincubated for 1 hr by radio-labelled [35S]-GTPgammaS binding assay in presence of 4% HSA; assay type: functional, cell-based
[22] = Apparent permeability across apical to basolateral side of human Caco2 cells at pH 7.4; assay type: ADME, cell-based; details: Caco-2, pH 7.4
[23] = Apparent permeability across basolateral to apical side of human Caco2 cells at pH 7.4; assay type: ADME, cell-based; details: Caco-2, pH 7.4
[24] = Aqueous solubility of the compound at pH 1; assay type: physicochemical
[25] = Aqueous solubility of the compound at pH 7.4; assay type: physicochemical
[26] = Lipophilicity, log D of the compound by shake-flask method; assay type: physicochemical; details: octanol/water
[27] = tested on: Rattus norvegicus; assay: Cmax in rat assessed as 2-(2-methyl-4-oxo-3-(2-(phenylsulfonyl)benzyl)-4,5,6,7-tetrahydro-1H-pyrrolo[3,2-c]pyridin-1-yl)acetic acid at 1 mg/kg, iv; assay type: ADME, organism-based; set-up: dose 1 mg/kg, route intravenous; details: in vivo
[28] = tested on: Rattus norvegicus; assay: AUC (0 to infinity) in rat assessed as 2-(2-methyl-4-oxo-3-(2-(phenylsulfonyl)benzyl)-4,5,6,7-tetrahydro-1H-pyrrolo[3,2-c]pyridin-1-yl)acetic acid at 1 mg/kg, iv; assay type: ADME, organism-based, Plasma; set-up: time infinity, dose 1 mg/kg, route intravenous; details: in vivo
[29] = tested on: Rattus norvegicus; assay: Volume of distribution at steady state in rat assessed as 2-(2-methyl-4-oxo-3-(2-(phenylsulfonyl)benzyl)-4,5,6,7-tetrahydro-1H-pyrrolo[3,2-c]pyridin-1-yl)acetic acid at 1 mg/kg, iv; assay type: ADME, organism-based; set-up: dose 1 mg/kg, route intravenous; details: in vivo
[30] = tested on: Rattus norvegicus; assay: Terminal half life in rat assessed as 2-(2-methyl-4-oxo-3-(2-(phenylsulfonyl)benzyl)-4,5,6,7-tetrahydro-1H-pyrrolo[3,2-c]pyridin-1-yl)acetic acid at 1 mg/kg, iv; assay type: ADME, organism-based; set-up: dose 1 mg/kg, route intravenous; details: in vivo
[31] = tested on: Rattus norvegicus; assay: Cmax in rat assessed as 2-(2-methyl-4-oxo-3-(2-(phenylsulfonyl)benzyl)-4,5,6,7-tetrahydro-1H-pyrrolo[3,2-c]pyridin-1-yl)acetic acid at 10 mg/kg, po; assay type: ADME, organism-based; set-up: dose 10 mg/kg, route oral; details: in vivo
[32] = tested on: Rattus norvegicus; assay: AUC (0 to infinity) in rat assessed as 2-(2-methyl-4-oxo-3-(2-(phenylsulfonyl)benzyl)-4,5,6,7-tetrahydro-1H-pyrrolo[3,2-c]pyridin-1-yl)acetic acid at 10 mg/kg, po; assay type: ADME, organism-based, Plasma; set-up: time infinity, dose 10 mg/kg, route oral; details: in vivo
[33] = tested on: Rattus norvegicus; assay: Terminal half life in rat assessed as 2-(2-methyl-4-oxo-3-(2-(phenylsulfonyl)benzyl)-4,5,6,7-tetrahydro-1H-pyrrolo[3,2-c]pyridin-1-yl)acetic acid at 10 mg/kg, po; assay type: ADME, organism-based; set-up: dose 10 mg/kg, route oral; details: in vivo
[34] = tested on: Rattus norvegicus; assay: Oral bioavailability in rat assessed as 2-(2-methyl-4-oxo-3-(2-(phenylsulfonyl)benzyl)-4,5,6,7-tetrahydro-1H-pyrrolo[3,2-c]pyridin-1-yl)acetic acid at 10 mg/kg; assay type: ADME, organism-based; details: in vivo
[35] = species: Cavia porcellus; assay: Antiinflammatory activity in guinea pig eosinophilia model; assay type: functional, organism-based

| SMILES | IC50 [1] [nM] | inhibition [2] [%] | inhibition [3] [%] | pKa [4] | Cmax [5] [ng/mL] | clearance [6] [mL/min/kg] | AUC(0-inf) [7] [ng·h/mL] | Vd [8] [L/kg] | half-life [9] [h] | Cmax [10] [ng/mL] | AUC(0-inf) [11] [ng·h/mL] | half-life [12] [h] | bioavailability [13] [%] | IC50 [14] [nM] | IC50 [15] [nM] | IC50 [16] [nM] | IC50 [17] [nM] | IC50 [18] [nM] | IC50 [19] [nM] | T1/2 [20] [h] | also measured |
| --- | --- | --- | --- | --- | --- | --- | --- | --- | --- | --- | --- | --- | --- | --- | --- | --- | --- | --- | --- | --- | --- |
| COc1ccc(S(=O)(=O)c2ccc(F)cc2)c(Cc2c3c(n(CC(=O)O)c2C)CCNC3=O)c1 | 7.1 | < 30 | < 30 | 3.1 | 1960 | 27 | 613 | 0.31 | 0.3 | 36 | 76 | 2.2 | 1.2 | 10 | 6.9 | 4.1 | 3.6 | 2.4 | 2.1 | 23 |  |
| Cc1c(Cc2ccccc2S(=O)(=O)c2ccc(F)cc2)c2c(n1CC(=O)O)CCNC2=O | 3.3 | < 30 | < 30 |  | 5740 | 6.8 | 2460 | 0.19 | 2.2 | 102 | 380 | 5.6 | 1.5 |  |  |  |  |  |  | 3.3 |  |
| Cc1c(Cc2ccccc2S(=O)(=O)c2ccccc2)c2c(n1CC(=O)O)CCNC2=O | 5 | < 30 | < 30 | 3 |  |  |  |  |  |  |  |  |  | 6.5 | 4.9 | 4.5 | 4 | 3 | 3 | 2.3 | IC50 [21]: 10 nM; Papp A→B [22]: 0.01 ×10⁻⁶ cm/s; Papp B→A [23]: 0.1 ×10⁻⁶ cm/s; solubility [24]: 500 µg/mL (≈ 1140 µM); solubility [25]: 870 µg/mL (≈ 1980 µM); logD [26]: 0.9 |
| CCOC(=O)Cn1c(C)c(Cc2ccccc2S(=O)(=O)c2ccccc2)c2c1CCNC2=O |  |  |  |  |  |  |  |  |  |  |  |  |  |  |  |  |  |  |  |  | Cmax [27]: 5370 ng/mL; AUC [28]: 1726 ng·h/mL; Vdss [29]: 0.25 L/kg; beta t1/2 [30]: 0.3 h; Cmax [31]: 842 ng/mL; AUC [32]: 4623 ng·h/mL; beta t1/2 [33]: 7.4 h; F [34]: 27% |
| Cc1c(Cc2ccccc2S(=O)(=O)c2ccccc2)c2c(n1CC(=O)O)CC(C)(C)NC2=O | 4 | < 30 | < 30 | 3 | 5490 | 8.4 | 2050 | 0.19 | 0.8 | 126 | 275 | 2.5 | 1.3 | 7.7 | 6.3 | 5.5 | 4.2 | 2.9 | 2.1 | 10 | Papp A→B [22]: 1.1 ×10⁻⁶ cm/s; Activity [35]: Active |
